According to patent publication US7959956B2, “Method for treating diabetic complications” (Korea Institute of Oriental Medicine, Ltd., priority 2004, dated 2011):

What was measured:
[1] = system: production of advanced glycation endproducts (bovine serum albumin + sugar mixture); assay: Inhibition of production of advanced glycation endproducts (BSA + fructose/glucose, fluorescence); type: biochemical
Protocol: As a protein source, bovine serum albumin (hereinafter, referred to as “BSA”; Sigma, USA) was used. BSA was dissolved in 50 mM phosphate buffer (pH 7.4) to a concentration of 10 mg/ml.
As a sugar source, a mixture of 0.1 M fructose and 0.1 M glucose was used.
This sugar mixture was added to the prepared BSA solution, for use in tests.
The herbal extract mixture prepared in Example 2 was dissolved in 15% Tween80, and this solution was added to the BSA-sugar mixture and cultured at 37° C. for 30 days. At this time, 0.02% sodium azide was used as an antibacterial agent.
As a control group, a culture consisting of BSA and the sugar mixture was cultured, and as blanks to the control and test groups, the materials for the test group and the materials for the control group were used after preparation without incubation.
In order to reduce errors to the lowest possible extent, 4 samples for each group were used. Just before culturing, the samples were filled with nitrogen gas (99.999% purity) in order to prevent them being contaminated. After 30 days, the content of advanced glycation endproducts in the culture media was analyzed. The advanced glycation endproducts are fluorescent, show a brown color, are crosslinkable, and have ligands which can be recognized by cellular membrane receptors. The amount of the advanced glycation endproducts with such properties was measured with a spectrophotometer (excitation at 350 nm and release at 450 nm) so as to determine the inhibition of production of the advanced glycation endproducts.
The inhibition (%) of production of advanced glycation endproducts was calculated according to the following equation: Inhibition (%) of production=100−[(fluorescent intensity of test group−fluorescent intensity of blank to test group)/(fluorescent intensity of control group−fluorescent intensity of blank to control group)]×100
The part (1) of this Example was repeated except that extract from each of Euphorbiae radix, gingered Magnolia bark, parched Puerariae radix and Glycyrrhizae radix was dissolved in 15% Tween80 and cultured for 90 days.
Magnolol was dissolved in distilled water at concentrations of 3.33 μg/ml, 6.66 μg/ml, 13.32 μg/ml and 26.6 μg/ml, and then cultured for 37° C. for 30 days in the same manner as in the above part (1).
aminoguanidine, a positive control group, was tested in the same manner as in the above part (1) except that aminoguanidine was dissolved in distilled water at selected concentrations and cultured for 30 days and 90 days.

[2] = system: streptozotocin diabetes-induced SD rats; assay: Streptozotocin diabetic rats: anti-cataract effect (eye lens opacity); type: in vivo, rat; conditions: for Eye lens's opacity (%): mean
Description: (§1) The test animals were divided into the following four groups: (1) a normal group administered with carboxymethyl cellulose (NC+CMC); (2) a diabetes-induced group administered with carboxymethylcellulose (DC+CMC); (3) a diabetes-induced group administered with the herbal extract mixture (DC+HMP); (4) and a diabetes-induced group administered with a positive control (Eparlestat) (DC+S11). The diabetes-induced groups each consisted of 9-10 animals, and the normal group consisted of 5-6 animals. The body weights of the animals were similar between the test groups.
(§2) The test animals were adapted to the animal room and then fasted overnight. Streptozotocin was dissolved in 0.1 M citrate buffer (pH 4.5), and just then, injected into the abdominal cavities of the fasted animals at a dose of 60 mg/kg. At 2 days after administering the streptozotocin solution, tail vein blood was sampled from the animals and examined for blood glucose level. Rats having a blood glucose level of more than […] were determined to be diabetes-induced rats.
(§3) For the two diabetes-induced groups other than the normal group, each of 1 g/kg of the herbal extract mixture (HMP) and 25 mg/kg of Epalrestat (S11) was dissolved in 1% CMC and administered orally to the rats by a sonde daily for 8 weeks.
From the eyeballs removed under a microscope, the eye lenses were separated and transferred onto 24-well plates each containing 2 ml of a saline solution. Then, the eye lenses were photographed with a digital camera. The opacity of the eye lenses was analyzed by the use of an imaging system program.
The eye lenses were photographed with a camera and measured for weight. Then, the eye lenses were placed in phosphate buffer (pH 6.9) and homogenized at 4° C. For use in the measurement of enzymatic activity, some of the homogenized solution was centrifuged at 3,000 rpm for 20 minutes, and the supernatant was collected and stored at −80° C. For use in the measurement of content of sorbitol, etc., the remaining homogenized solution was added with ZnSO4 and NaOH so as to remove protein, and centrifuged at 3,000 rpm for 20 minutes, and the supernatant was collected and stored at −80° C.
The results of visual observation for the eyeballs are shown in FIG. 9, and the results of camera observation for the eye lenses are shown in FIG. 10.

[3] = system: streptozotocin diabetes-induced SD rats; assay: Streptozotocin diabetic rats: body weight, feed and water intake; type: in vivo, rat
Description: Four-week-old SD male rats weighing 120-140 g were housed in cages at one animal for each cage and allowed for access to general solid food and water while adapting the animals to an animal room of this institute (the applicant).
as §1, §2
To examine a therapeutic effect against chronic diabetic complications, the rats was continued to maintain in diabetic conditions for 30 days. From day 31, the rats were administered with the drugs for 8 weeks.
Since the herbal extract mixture (HMP) and Epalrestat (S11) used in the tests are insoluble in water, they were dissolved in 1% carboxymethylcellulose before use. The normal group was administered with carboxylmethylcellulose so as to eliminate an effect caused by carboxylmethylcellulose.
as §3
After administering the samples during the administration period, the test animals were fasted for at least 15 hours at one day before autopsy, and then measured for body weight.
The body weight was measured every day, the feed intake was measured one time a week, and the water intake was measured every day.

[4] = system: streptozotocin diabetes-induced SD rats; assay: Streptozotocin diabetic rats: biochemical factors in serum; type: in vivo, rat; conditions: oral daily 8 weeks; for Glucose level: plasma
Description: as §1, §2, §3
At two-week intervals up to before autopsy, blood was taken from the orbital veins and measured for plasma glucose level with a glucose kit. The plasma glucose level was measured at 500 nm UV by a glucose oxidase method.
BUN was determined by measuring absorbance at 580 nm by a urease-indophenol method.
Triglyceride content was quantified by measuring absorbance at 550 nm by an enzymatic method (POD).
Total cholesterol level was determined by measuring absorbance at 500 nm by an enzymatic method.
Creatinine was determined by measuring absorbance at 515 nm by a modified Jaffe's method.
Protein in serum was determined by BCA assay. Serum was reacted with a bicinchonicic acid solution of bicinchonicic acid, Na2CO3, NaHCO3 and C4H4O6Na2.2H2O in 0.1N NaOH and a 4% CuSO4.5H2O solution and then measured for absorbance at 562 nm.

[5] = system: streptozotocin diabetes-induced SD rats; assay: Streptozotocin diabetic rats: organ weight; type: in vivo, rat; conditions: oral daily 8 weeks
Description: as §1, §2, §3
One day before autopsy, the test animals were fasted for at least 15 hours and then measured for body weight. Then, the animals were anesthetized with ethyl ether, from which blood was collected via the abdominal aorta. Some of the collected blood was treated with heparin, and some of whole blood was centrifuged at 3,000 rpm and 4° C. for 15 minutes. From each of the blood samples, plasma was isolated and stored at −80° C. before use in data analysis.
The kidneys of the animals were removed after washing by perfusion and measured for weight. Next, the kidneys were separated into cortex and medulla, which were rapidly cooled and stored at −80° C. In addition, the liver, lungs, pancreas, spleen and heart were separated and measured for weight.

[6] = diabetes-induced rats, oral daily 8 weeks

N=C(N)NN [Aminoguanidine, aminoguanidine]
Inhibition (%) of production of advanced glycation endproducts ([1]; bovine, 30 days, 27.5 μg/ml, pH 7.4): 45.78 ± 2.400% | Inhibition (%) of production of advanced glycation endproducts ([1]; bovine, 30 days, 55 μg/ml, pH 7.4): 55.43 ± 4.000% | Inhibition (%) of production of advanced glycation endproducts ([1]; bovine, 30 days, 110 μg/ml, pH 7.4): 73.52 ± 1.750% | Inhibition (%) of production of advanced glycation endproducts ([1]; bovine, 30 days, 550 μg/ml, pH 7.4): 96.41 ± 2.200% | IC50 (μg/ml), inhibition of production of advanced glycation endproducts ([1]; bovine, 30 days, pH 7.4): 34.90 µg/mL | Inhibition (%) of production of advanced glycation endproducts ([1]; bovine, 90 days, 27.5 μg/ml, pH 7.4): 39.647 ± 3.406% | Inhibition (%) of production of advanced glycation endproducts ([1]; bovine, 90 days, 110 μg/ml, pH 7.4): 65.714 ± 5.394% | IC50 (μg/ml), inhibition of production of advanced glycation endproducts ([1]; bovine, 90 days, pH 7.4): 30.80 µg/mL

CC(/C=C1\SC(=S)N(CC(=O)O)C1=O)=C\c1ccccc1 [Epalrestat (S11)]
Eye lens's opacity (%) [2, 6]: 37.38±13.56% | Animals with cataract symptoms in both eyeballs on the day of autopsy ([2]; visual observation of eyeballs, FIG. 9): four of seven | Feed intake compared to diabetes-induced group ([3]; oral daily 8 weeks): more feed than that of the diabetes-induced group | Water intake compared to diabetes-induced group ([3]; oral daily 8 weeks): more water than that of the diabetes-induced group | Increase in body weight ([3]; oral daily 8 weeks (HMP 1 g/kg, S11 25 mg/kg)): 129.21 g

CC(/C=C1\SC(=S)N(CC(=O)O)C1=O)=C\c1ccccc1 [Epalrestat]
BUN [4]: 23.60 ± 5.15 mg/dL | Creatinin [4]: 1.22 ± 0.16 mg/dL | Total cholesterol [4]: 59.50 ± 13.88 mg/dL | Triglyceride [4]: 46.18 ± 8.26 mg/dL | Glucose level [4]: 197.94 mg/dL | Glucose level ([4]; listed as S11): 197.94 ± 76.66 mg/dL | Protein ([4]; serum, BCA assay): 10.79 ± 0.85 µg/µL | Eye lens's opacity (20 pixels/m^2) [2, 6]: 134.04 ± 45.00 20 pixels/m^2 | Eye lens's opacity (%) ([2]; diabetes-induced rats, oral daily 8 weeks, listed as S11): 37.38 ± 13.56 % | Body weight, early stage ([3]; oral daily 8 weeks (HMP 1 g/kg, S11 25 mg/kg), early stage): 154.03 ± 45.46 g | Body weight, end stage ([3]; oral daily 8 weeks (HMP 1 g/kg, S11 25 mg/kg), end stage): 283.24 ± 42.60 g | Heart absolute weight [5]: 0.95 ± 0.11 g | Heart relative weight (%) [5]: 0.34 ± 0.03 % | Kidneys absolute weight [5]: 3.18 ± 0.30 g | Kidneys relative weight (%) [5]: 1.14 ± 0.11 % | Liver absolute weight [5]: 11.63 ± 1.08 g | Liver relative weight (%) [5]: 4.15 ± 0.40 % | Lungs absolute weight [5]: 1.55 ± 0.13 g | Lungs relative weight (%) [5]: 0.55 ± 0.06 % | Pancreas absolute weight [5]: 0.86 ± 0.11 g | Pancreas relative weight (%) [5]: 0.31 ± 0.05 % | Spleen absolute weight [5]: 0.54 ± 0.09 g | Spleen relative weight (%) [5]: 0.19 ± 0.02%

C=CCc1ccc(O)c(-c2cc(CC=C)ccc2O)c1 [Magnolol, magnolol]
Inhibition (%) of production of advanced glycation endproducts ([1]; 3.33 μg/ml, cultured for 30 days): 36.36 ± 1.61% | Inhibition (%) of production of advanced glycation endproducts ([1]; 6.66 μg/ml, cultured for 30 days): 55.75 ± 2.11% | Inhibition (%) of production of advanced glycation endproducts ([1]; 13.32 μg/ml, cultured for 30 days): 77.05 ± 1.70% | Inhibition (%) of production of advanced glycation endproducts ([1]; 26.64 μg/ml, cultured for 30 days): 100% | IC50 (μg/ml), inhibition of production of advanced glycation endproducts ([1]; cultured for 30 days, 37° C.): 5.36 µg/mL
